The test system of data set [1] is Aβ42 production in N2A-APPswe cells. The experiment in a line: Aβ42 in conditioned medium of N2A-APPswe cells by ELISA, 18 h treatment. In kind it is cell-based. The note with it: for decrease in Aβ42 / Aβ42-lowering effect (in words): N2A-APPswe cells; for decrease in Aβ42: 18 h; for IC50: N2a-APPswe, read-out: IC50 in lowering Aβ42 production, N2A-APPswe cells, mean ± standard deviation, n ≥ 3. From the text:
Sigma-Aldrich Chemical Co. unless otherwise specified. SSG (1) was purchased from Wako Pure Chemical Industries, Ltd. Diosgenin (6), Dioscin (9), Polyphyllin D (10), Timosaponin BI (22) and Timosaponin BII (23) were purchased from Chengdu Must Bio-Technology Co.
Ltd. Yamogenin (7) was bought from Ambinter c/o Greenpharma while Smilagenin (24) was bought from Steraloids Inc. Substances dissolved in DMSO as stock solutions. Cell culture medium constituents were purchased from Life Technologies, Inc.
Cell culture: Neuro-2A cells expressing Swedish mutants of APP (N2A-APPswe provided by Prof. Yifan Han, The Hong Kong Polytechnic University)1 was cultured in minimal essential medium with 2 mM glutamine, 2 mM pyruvate and 10% fetal bovine serum. […]
Aβ ELISA: Aβ concentrations in conditioned medium were assayed using ELISA kits for […]
For orientation: ELISA stands for enzyme-linked immunosorbent assay.

The target of data set [2] is T1, β-secretase (Mus musculus, UniProt P56818).
T1 construct: endogenous in cells; host or cells: N2A-APPswe (Neuro-2A stably expressing APP Swedish mutant)
The experiment in a line: β-Secretase assay in N2A-APPswe cell protein extracts. It counts as biochemical. The protocol:
β-Secretase assays: Confluent N2A-APPswe cells were harvested and homogenized with 50
mM MES, pH5.5. Protein extracts (10 µg) were incubated with testing compounds or vehicle
for 1 h at room temperature. […]

The nature of data set [3]: Plasma and brain concentrations by LC-MS/MS. In kind it is in vivo, mice. The note with it: for Plasma Precursor: mice n = 6, three repeated oral doses 100 mg/kg in two days. The method, then: Animal experiments: Male C57BL/6N mice were housed in environmentally controlled room (temperature: 25 ± 2 °C, humidity: 50 ± 5%, 12-h light-dark cycle) in Laboratory Animal Unit, The University of Hong Kong and were freely access to food and water. TAIII, TAI SSG and compound 34 were dissolved in 5% Tween 80 and given to the mice by oral gavage at three repeated doses of 100 mg/kg in 48 hours. Mice were administrated with 5% Tween 80 (control group), TAIII, TAI SSG and 34. The experimental procedures were performed with the approval of Committee of Use of Live Animal for Teaching and Research of The University of Hong Kong. Blood (about 600-800 µL) was collected by cardiac puncture and added with 1/10 volume of Na2EDTA (20 mg/mL) to prevent coagulation. After centrifugation at 3000 g for 15 min at 4 °C, plasma was transferred to a centrifuge tube. The brain was dissected into two hemispheres on ice, weighed and frozen in liquid nitrogen immediately. The left brain was homogenized with 1 mL of buffer containing 5 M guanidine HCl, 50 mM Tris HCl, pH 8.0, with protease inhibitor cocktail and AEBSF using a Polytron and the homogenates were allowed to stand at room temperature for 3h. Both plasma and brain samples were stored at -80 °C until they were analyzed. […]
B. Determination of timosaponin levels in mice plasma and brain by ultra-high pressure liquid chromatography tandem mass spectrometry
The UPLC-ESI-QTOF consists of a Waters Q-TOF PremierTM mass spectrometer (Micromass MS Technologies, Manchester, UK) operated in positive ion mode and a Waters ACQUITY TM UPLC system. The mass spectrometer conditions were optimized as follows: source […]
temperature, 120 °C; desolvation temperature, 500 °C; nebulization gas flow rate, 1000 L/h; cone gas flow rate, 20 L/h; capillary voltage, 2.5 kV; sampling cone voltage, 28V. The data were collected into two separate data channels with the instrument spending 0.5 s on data acquisition for each channel and a 0.1 s inter-channel delay. The mass spectrometer was calibrated by using the solution of sodium formate (0.5 mM) and the TOF scan range was from 100 to 1000 Da. In order to improve mass measurement accuracy a lock mass compound (50 pg µL−1 solution of leucine encephalin; m/z 556.2771) was continuously infused at a 0.5 mL min-1 using the built-in syringe pump of the instrument.
Sample was loaded into a Waters ACQUITY TM BEH C18 column (100 × 2.1 mm i.d., 1.7 µM) connected to a Waters ACQUITY TM BEH C18 guard column (5 × 2.1 mm i.d., 1.7 µM). The gradient elution system consisted of 0.1% formic acid in water (A) and 0.1% formic acid in acetonitrile (B). Separation was achieved by using: 30%-55% B from 0 to 3 min; 55-100% B from 3 to 6 min; 100% B from 6 to 12 min and returned to initial conditions and equilibrated for 3 minutes. The flow rate was 0.3 mL/min and the injection volume was 5 µL.
Standard preparation and sample preparation
Stock solution (10 µM ) of each analyte was prepared by dissolving in methanol. They were subject to serial dilution to give calibration curves of SSG 1 (plasma: y = 8.7485× - 0.0676; […]
each concentration of each analyte was transferred to a centrifuge tube and evaporated to dryness by a concentrator. Dioscin (20 µL , 10 µM) was added as an internal standard followed by methanol (130 µL) and control plasma (50 µL). The mixture was vortexed for 5 s and centrifuged (15000 × g) for 15 min. The supernatant was collected and evaporated to dryness by a concentrator. Methanol (100 µL) was added and then vortexed again for 10 s and centrifuged (15000 × g) for 20 min. The supernatant (5 µL) was subject to LC-MS/MS analysis. Analyte-treated plasma, control brain and analyte-treated brain were prepared in a […]
The acquisition and processing of data were performed by Masslynx (version 4.1) software.
Mass window of ±10 mDa and mass resolution of 9000 were set for both molecular ions and product ions. MS full scan was applied to acquire high abundant molecular ions [M+H]+ with […]

Data set [4] has as its system animal models of dementia. Details: method as in PMID 19426756, PMID 16226729, PMID 17566650. Conditions: oral administration; cited from earlier work.
The mark [5] stands for this setting: any metabolite, mice n = 6, three oral doses 100 mg/kg in two days.
[6] abbreviates: mice n = 6, three oral doses 100 mg/kg in two days.

As usually defined, the IC50 is the concentration at which inhibition is half-maximal.

T1 sequence (P56818 46-501): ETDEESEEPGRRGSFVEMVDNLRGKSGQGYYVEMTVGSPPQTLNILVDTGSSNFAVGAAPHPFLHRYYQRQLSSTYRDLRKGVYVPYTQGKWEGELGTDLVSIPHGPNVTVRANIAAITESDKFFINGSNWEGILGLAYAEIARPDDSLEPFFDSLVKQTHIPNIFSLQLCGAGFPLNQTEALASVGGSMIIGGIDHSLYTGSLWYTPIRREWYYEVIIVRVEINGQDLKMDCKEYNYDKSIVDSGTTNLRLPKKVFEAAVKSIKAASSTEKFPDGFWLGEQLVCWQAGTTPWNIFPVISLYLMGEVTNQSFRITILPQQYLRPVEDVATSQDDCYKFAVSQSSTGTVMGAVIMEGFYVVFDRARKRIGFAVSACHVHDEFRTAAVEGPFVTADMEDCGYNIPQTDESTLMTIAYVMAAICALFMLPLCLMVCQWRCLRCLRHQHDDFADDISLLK

Turning to `C[C@H]1CC[C@@]2(OC1)O[C@H]1C[C@H]3[C@@H]4CC[C@@H]5C[C@@H](O)CC[C@]5(C)[C@H]4CC[C@]3(C)[C@H]1[C@@H]2C` [SSG (1), sarsasapogenin], the “decrease in Aβ42” value in data set [1] (50 μM) was determined as 55%. Besides, the “decrease in Aβ42” value in data set [1] (100 μM) was 40%. Also, in data set [1], the concentration for half-maximal inhibition (IC50) stood at 53 ± 9 µM. In addition, in data set [2], the “β-secretase activities in the cell extracts” value is “no change”. In addition, in data set [3] (setting [5]), the “Brain Metabolite” value is listed as “Not detected” and the “Plasma Metabolite” value is given as “Not detected”. Moreover, in data set [3] (setting [6]), the “Brain Precursor” value is 1.042 ± 0.418 µM. For the same compound, the “Plasma Precursor” value in data set [3] came out at 0.118 ± 0.062 µM. Moreover, in data set [4], the memory dysfunction entry is recorded as “improve”.
As to `C[C@H]1CC[C@@]2(OC1)O[C@H]1C[C@H]3[C@@H]4CC[C@@H]5C[C@@H](O[C@@H]6O[C@H](CO)[C@H](O)[C@H](O)[C@H]6O)CC[C@]5(C)[C@H]4CC[C@]3(C)[C@H]1[C@@H]2C` [TAI (3), timosaponin A I], in data set [1], the “Aβ42-lowering effect (in words)” value is recorded as “effectively lowered” and the IC50 was ~6.1 µM. The “Brain Precursor” value in data set [3] (setting [6]) is 1.174 ± 0.401 µM. The “Plasma Precursor” value in data set [3] was 3.361 ± 0.925 µM.
On to `C[C@H]1CC[C@@]2(OC1)O[C@H]1C[C@H]3[C@@H]4CC[C@@H]5C[C@@H](O[C@@H]6O[C@H](CO)[C@H](O)[C@H](O)[C@H]6O[C@@H]6O[C@H](CO)[C@@H](O)[C@H](O)[C@H]6O)CC[C@]5(C)[C@H]4CC[C@]3(C)[C@H]1[C@@H]2C` [TAIII (2), timosaponin A III], for which, in data set [1], the “Aβ42-lowering effect (in words)” value is given as “effectively lowered” and the IC50 is ~2.3 µM. The “β-secretase activities in the cell extracts” value in data set [2] is reported as “did not affect”. Further, the “Brain Precursor” value in data set [3] (setting [6]) is recorded as “Not detected”. Besides, in data set [3], the “Plasma Precursor” value was 0.050 ± 0.058 µM. For the same compound, in data set [4], the memory dysfunction result is on record as “improve”.

(Values after publication PMC6005341, “Identification of “sarsasapogenin-aglyconed” timosaponins as novel Aβ-lowering modulators of amyloid precursor protein processing” (Chemical Science, 2016).)
